We go through 9 compounds from patent US12281122B1, “PI3K inhibitors” (Cogent Biosciences, Inc., priority 2023, dated 2025).

Molecules are shown by their SMILES. Where two headings read alike, the source gives them in different places.

The nature of data set [1]: Mouse PK, IV and PO. The conditions noted are these: in vivo; for clearance: read-out: PK-Mouse: IV Cl; for bioavailability: read-out: PK-Mouse: PO F (%).
In data set [2] the test system is T47D (PI3Kα-H1047R) cell line. Kind of data set: HTRF phospho-AKT(S473) cell assay in T47D cells. It is filed as cell-based, human. To be noted: Homo sapiens; T47D (PI3Kα-H1047R) cells, HTRF phospho-AKT(S473), 2 hours compound incubation. The method in brief: (§1)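 T47D: RPMI + 10% FBS + 0.2 units/mL insulin, top 5 μM. SKBR3: McCoy's 5A + 10% FBS, top 10 μM, 70 ng/ml PDGF-BB last 15 min. Both: 12-pt 1:3, 2 h, 37° C, max 0.5% DMSO; HTRF pAKT(S473); IC50.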
For orientation: Time-resolved FRET reads energy transfer from a long-lived donor to a nearby acceptor.

In data set [3] the target is PI3Kα H1047R (Homo sapiens, UniProt P42336, H1047R). Put plainly: PI3Kα H1047R enzyme assay (Transcreener ADP2 TR-FRET Red Assay). The class given is biochemical. To be noted: purified recombinant full-length protein; 2 hours pre-incubation with compound. The method in brief: (§2)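 Purified recombinant full-length enzymes pre-incubated 2 h at room temperature with compounds (11-point 1:3 dilutions, typically 50,000–0.85 nM), then started with ATP/PI(4,5)P2 diC8 and run 60 min at room temperature in 40 mM HEPES pH 7.5, 20 mM NaCl, 25 mM MgCl2, 0.01% Triton X-100. ADP detected by TR-FRET 665/615 ratio; IC50 from four-parameter fit of percent of control.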

In data set [4] the test system is SKBR3 (PI3Kα-Wild Type) cell line. Put plainly: HTRF phospho-AKT(S473) cell assay in SKBR3 cells. The class given is cell-based, human. The conditions noted are these: Homo sapiens, SK-BR-3; SKBR3 (PI3Kα-Wild Type) cells, HTRF phospho-AKT(S473), 2 hours compound incubation, PDGF-BB stimulated. Put shortly: as §1
The target in data set [5] is PI3Kα (Homo sapiens, UniProt P42336). Put plainly: PI3Kα enzyme assay (Transcreener ADP2 TR-FRET Red Assay). The class given is biochemical. To be noted: purified recombinant full-length protein; 2 hours pre-incubation with compound; read-out: PI3Kα WT IC50. Put shortly:
as §2

[6] abbreviates: IV dose 3 mg/kg, read-out: PK-Mouse: IV-AUCinf.
[7] abbreviates: PO dose 30 mg/kg, 20% Captisol (aq), fed.
The mark [8] stands for this setting: PO dose 30 mg/kg, 20% Captisol (aq), fed, read-out: PK-Mouse: PO AUCinf.

Chain of PI3Kα H1047R (P42336 whole entry H1047R): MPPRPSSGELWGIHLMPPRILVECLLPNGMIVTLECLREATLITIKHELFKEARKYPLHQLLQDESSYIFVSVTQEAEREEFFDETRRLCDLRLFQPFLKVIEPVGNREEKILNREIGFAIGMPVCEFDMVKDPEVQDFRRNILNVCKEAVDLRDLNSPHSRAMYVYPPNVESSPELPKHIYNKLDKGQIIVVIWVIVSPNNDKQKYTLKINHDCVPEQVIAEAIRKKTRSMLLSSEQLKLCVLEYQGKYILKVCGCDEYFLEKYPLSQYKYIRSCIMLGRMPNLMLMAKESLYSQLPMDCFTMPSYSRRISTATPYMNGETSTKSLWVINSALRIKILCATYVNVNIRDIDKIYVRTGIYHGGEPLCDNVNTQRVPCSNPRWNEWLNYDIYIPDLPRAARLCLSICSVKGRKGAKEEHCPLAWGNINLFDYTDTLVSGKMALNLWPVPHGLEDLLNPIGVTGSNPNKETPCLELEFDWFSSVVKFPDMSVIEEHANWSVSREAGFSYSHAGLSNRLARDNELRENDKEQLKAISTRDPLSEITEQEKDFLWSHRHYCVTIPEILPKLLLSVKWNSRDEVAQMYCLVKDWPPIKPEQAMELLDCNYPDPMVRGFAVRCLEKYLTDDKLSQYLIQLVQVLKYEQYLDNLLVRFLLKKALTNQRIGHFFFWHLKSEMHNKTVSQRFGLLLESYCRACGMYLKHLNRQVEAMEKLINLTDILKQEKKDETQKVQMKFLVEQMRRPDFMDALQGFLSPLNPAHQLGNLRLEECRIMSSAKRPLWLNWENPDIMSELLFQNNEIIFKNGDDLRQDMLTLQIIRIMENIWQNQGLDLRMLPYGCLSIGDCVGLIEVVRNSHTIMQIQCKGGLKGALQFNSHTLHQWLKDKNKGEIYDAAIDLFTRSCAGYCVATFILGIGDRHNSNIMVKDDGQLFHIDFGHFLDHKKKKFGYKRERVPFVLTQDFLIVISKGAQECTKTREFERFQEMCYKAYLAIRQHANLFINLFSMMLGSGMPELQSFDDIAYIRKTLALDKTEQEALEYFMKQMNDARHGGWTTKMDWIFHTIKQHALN
Chain of PI3Kα H1047R (P27986 2-724 partner): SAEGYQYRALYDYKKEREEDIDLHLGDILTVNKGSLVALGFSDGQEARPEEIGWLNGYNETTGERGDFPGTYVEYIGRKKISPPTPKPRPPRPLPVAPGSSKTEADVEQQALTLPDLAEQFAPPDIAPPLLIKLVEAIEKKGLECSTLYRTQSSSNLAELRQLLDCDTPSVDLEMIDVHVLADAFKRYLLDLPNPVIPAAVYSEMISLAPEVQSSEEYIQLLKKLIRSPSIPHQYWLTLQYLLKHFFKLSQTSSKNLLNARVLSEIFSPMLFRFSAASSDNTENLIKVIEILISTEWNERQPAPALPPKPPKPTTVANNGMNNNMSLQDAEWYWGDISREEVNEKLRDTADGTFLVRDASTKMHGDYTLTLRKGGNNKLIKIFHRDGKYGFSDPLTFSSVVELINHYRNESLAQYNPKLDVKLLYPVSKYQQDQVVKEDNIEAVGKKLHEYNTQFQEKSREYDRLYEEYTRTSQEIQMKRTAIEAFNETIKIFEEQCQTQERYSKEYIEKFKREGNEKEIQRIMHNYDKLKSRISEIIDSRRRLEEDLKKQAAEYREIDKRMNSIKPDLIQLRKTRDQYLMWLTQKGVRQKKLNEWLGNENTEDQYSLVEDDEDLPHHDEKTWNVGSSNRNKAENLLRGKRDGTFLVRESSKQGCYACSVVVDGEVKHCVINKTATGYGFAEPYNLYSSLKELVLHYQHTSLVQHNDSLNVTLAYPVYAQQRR
Chain of PI3Kα (P42336 whole entry): as the sequence (P42336 whole entry H1047R) above, with R1047H counted along it
Chain of PI3Kα (P27986 2-724 partner): as the sequence (P27986 2-724 partner) above

One may read the Cmax as the highest concentration seen after dosing. As for `Cc1cc([C@@H](C)Nc2ccc(Cl)nc2C(=O)O)c2nc(N3Cc4ccc(F)cc4C3)n(C)c(=O)c2c1` [Compound 1 acid derivative, (R)-6-chloro-3-((1-(2-(5-fluoroisoindolin-2-yl)-3,6-dimethyl-4-oxo-3,4-dihydroquinazolin-8-yl)ethyl)amino)picolinic acid, reference compound], in data set [1] (IV dose 3 mg/kg), the clearance came out at 24.3 mL/min/kg. Also, in data set [1] (setting [6]), the AUC(0-inf) stood at 2070 ng·h/mL. Also, in data set [1] (setting [7]), the Cmax was 2490 ng/mL and the bioavailability amounted to 43%. Moreover, the AUC(0-inf) in data set [1] (setting [8]) worked out at 8850 ng·h/mL.

Usually IC50 stands for the concentration at which inhibition is half-maximal. On to `Cc1cc([C@@H](C)Nc2ccc(Cl)nc2C(=O)NS(C)(=O)=O)c2nc(N3Cc4ccc(F)cc4C3)n(C)c(=O)c2c1` [Compound 1, (R)-6-chloro-3-((1-(2-(5-fluoroisoindolin-2-yl)-3,6-dimethyl-4-oxo-3,4-dihydroquinazolin-8-yl)ethyl)amino)-N-(methylsulfonyl)picolinamide], for which the IC50 in data set [2] is less than 250 nM; in data set [3], 500 to 1000 nM; in data set [4] it was 1000 to 5000 nM; in data set [5], no less than 1000 nM. Besides, in data set [1] (IV dose 3 mg/kg), the clearance came out at 0.74 mL/min/kg. Besides, the AUC(0-inf) in data set [1] (setting [6]) is 67500 ng·h/mL; in data set [1] (setting [8]), 548000 ng·h/mL. The compound further displayed a Cmax in data set [1] (setting [7]) of 35500 ng/mL. Further, in data set [1] (setting [7]), the bioavailability was determined as 81%.

With `Cc1cc([C@@H](C)Nc2ccn[nH]c2=O)c2nc(N3Cc4ccc(F)cc4C3)n(C)c(=O)c2c1` [Compound 95, (R)-2-(5-fluoroisoindolin-2-yl)-3,6-dimethyl-8-(1-((3-oxo-2,3-dihydropyridazin-4-yl)amino)ethyl)quinazolin-4(3H)-one], the IC50 in data set [2] was 1000 to 5000 nM; in data set [3], no less than 1000 nM; in data set [4] it was 1000 to 5000 nM; in data set [5] it was no less than 1000 nM.

As to `COc1nc(Cl)ccc1N[C@H](C)c1cc(C)cc2c(=O)n(C)c(N3Cc4ccc(F)cc4C3)nc12` [Compound 96, (R)-8-(1-((6-chloro-2-methoxypyridin-3-yl)amino)ethyl)-2-(5-fluoroisoindolin-2-yl)-3,6-dimethylquinazolin-4(3H)-one], the IC50 in data set [2] was 1000 to 5000 nM; in data set [3] it was no less than 1000 nM; in data set [4], no less than 5000 nM; in data set [5] it was no less than 1000 nM.

On to `Cc1cc([C@@H](C)Nc2ccc(C)[nH]c2=O)c2nc(N3Cc4ccc(F)cc4C3)n(C)c(=O)c2c1` [Compound 97, (R)-2-(5-fluoroisoindolin-2-yl)-3,6-dimethyl-8-(1-((6-methyl-2-oxo-1,2-dihydropyridin-3-yl)amino)ethyl)quinazolin-4(3H)-one], for which the IC50 in data set [2] was 500 to 1000 nM; in data set [3], no less than 1000 nM; in data set [4], no less than 5000 nM; in data set [5], no less than 1000 nM.

Regarding `C[C@@H](Nc1ccc[nH]c1=O)c1cc(F)cc2c(=O)n(C)c(N3Cc4cnn(C)c4C3)nc12` [Compound 98, (R)-6-fluoro-3-methyl-2-(1-methyl-4,6-dihydropyrrolo[3,4-c]pyrazol-5(1H)-yl)-8-(1-((2-oxo-1,2-dihydropyridin-3-yl)amino)ethyl)quinazolin-4(3H)-one], the IC50 in data set [2] is 1000 to 5000 nM; in data set [3], no less than 1000 nM; in data set [4], no less than 5000 nM; in data set [5], no less than 1000 nM.

Take `C[C@@H](Nc1ccc(Cl)[nH]c1=O)c1cc(F)cc2c(=O)n(C)c(N3Cc4ccc(F)cc4C3)nc12` [Compound 99, (R)-8-(1-((6-chloro-2-oxo-1,2-dihydropyridin-3-yl)amino)ethyl)-6-fluoro-2-(5-fluoroisoindolin-2-yl)-3-methylquinazolin-4(3H)-one]: the IC50 in data set [2] was 500 to 1000 nM; in data set [3], 100 to 250 nM; in data set [4] it was no less than 5000 nM; in data set [5] it was no less than 1000 nM.

For `C[C@@H](Nc1ccc(Cl)[nH]c1=O)c1cc(F)cc2c(=O)n(C)c(N3Cc4cnn(C)c4C3)nc12` [Compound 100, (R)-8-(1-((6-chloro-2-oxo-1,2-dihydropyridin-3-yl)amino)ethyl)-6-fluoro-3-methyl-2-(1-methyl-4,6-dihydropyrrolo[3,4-c]pyrazol-5(1H)-yl)quinazolin-4(3H)-one], the IC50 in data set [2] was less than 250 nM; in data set [3], less than 100 nM; in data set [4], no less than 5000 nM; in data set [5], no less than 1000 nM.

On to `C[C@@H](Nc1ccc(Cl)[nH]c1=O)c1cc(F)cc2c(=O)n(C)c(N3CCOCC3)nc12` [Compound 101, (R)-8-(1-((6-chloro-2-oxo-1,2-dihydropyridin-3-yl)amino)ethyl)-6-fluoro-3-methyl-2-morpholinoquinazolin-4(3H)-one], for which the concentration for half-maximal inhibition (IC50) in data set [2] was 1000 to 5000 nM; in data set [3] it was 100 to 250 nM; in data set [4], no less than 5000 nM; in data set [5] it was no less than 1000 nM.
